From ChEMBL document CHEMBL5500372, “Novel natural osthole-inspired amphiphiles as membrane targeting antibacterials against methicillin-resistant Staphylococcus aureus (MRSA)” (Eur J Med Chem, 2024)
Activity calls are given as the source filed them. The rule behind the calls is not given here.

Tests used:
[1] = Toxicity in female KM mouse skin abscess model infected with methicillin-resistant Staphylococcus aureus clinical isolate 16 assessed as histological abnormalities in heart at 5 mg/kg, sc measured after 24 hrs by H and E staining based analysis; assay type: organism-based; conditions: in vivo
Staphylococcus aureus [2] = test: Antibacterial activity against methicillin-resistant Staphylococcus aureus clinical isolate 16 infected in female KM mouse skin abscess model assessed as effect on abscess in intradermal tissue at 5 mg/kg, sc measured after 24 hrs; assay type: functional, organism-based
[3] = Toxicity in female KM mouse skin abscess model infected with methicillin-resistant Staphylococcus aureus clinical isolate 16 assessed as effect on liver at 5 mg/kg, sc measured after 24 hrs by H and E staining based analysis; assay type: organism-based; conditions: in vivo
Staphylococcus aureus [4] = test: Antibacterial activity against methicillin-resistant Staphylococcus aureus clinical isolate 16 infected in female KM mouse skin abscess model assessed as reduction in inflammatory cells at 5 mg/kg, sc measured after 24 hrs by H and E staining based analysis; assay type: functional, organism-based
[5] = Toxicity in female KM mouse skin abscess model infected with methicillin-resistant Staphylococcus aureus clinical isolate 16 assessed as histological abnormalities in spleen at 5 mg/kg, sc measured after 24 hrs by H and E staining based analysis; assay type: organism-based; conditions: in vivo
Staphylococcus aureus [6] = test: Antibacterial activity against methicillin-resistant Staphylococcus aureus clinical isolate 16 infected in female KM mouse skin abscess model assessed as reduction in number of MRSA cells at 5 mg/kg, sc measured after 24 hrs; assay type: functional, organism-based
[7] = Toxicity in female KM mouse skin abscess model infected with methicillin-resistant Staphylococcus aureus clinical isolate 16 assessed as effect on kidney at 5 mg/kg, sc measured after 24 hrs by H and E staining based analysis; assay type: organism-based; conditions: in vivo
Staphylococcus aureus [8] = test: Antibacterial activity against methicillin-resistant Staphylococcus aureus clinical isolate 16 infected in female KM mouse skin abscess model assessed as log reduction in bacterial load at 5 mg/kg, sc measured after 24 hrs (reference value: 8.508 log10CFU/g); assay type: functional
[9] = Toxicity in female KM mouse skin abscess model infected with methicillin-resistant Staphylococcus aureus clinical isolate 16 assessed as histological abnormalities in kidney at 5 mg/kg, sc measured after 24 hrs by H and E staining based analysis; assay type: organism-based; conditions: in vivo
Staphylococcus aureus [10] = test: Bactericidal activity against methicillin-resistant Staphylococcus aureus clinical isolate 16 assessed as eradication of bacteria at 8 times MIC measured after 8 hrs by time-kill assay; assay type: functional, organism-based
Staphylococcus aureus [11] = test: Antibacterial activity against methicillin-resistant Staphylococcus aureus clinical isolate 16 infected in female KM mouse skin abscess model assessed as effect on abscess in back skin at 5 mg/kg, sc measured after 24 hrs; assay type: functional, organism-based
[12] = Toxicity in female KM mouse skin abscess model infected with methicillin-resistant Staphylococcus aureus clinical isolate 16 assessed as histological abnormalities in lung at 5 mg/kg, sc measured after 24 hrs by H and E staining based analysis; assay type: organism-based; conditions: in vivo
[13] = Toxicity in female KM mouse skin abscess model infected with methicillin-resistant Staphylococcus aureus clinical isolate 16 assessed as effect on lung at 5 mg/kg, sc measured after 24 hrs by H and E staining based analysis; assay type: organism-based; conditions: in vivo
Staphylococcus aureus [14] = test: Antibacterial activity against methicillin-resistant Staphylococcus aureus clinical isolate 16 infected in female KM mouse skin abscess model assessed as reduction in IL-6 level at 5 mg/kg, sc measured after 24 hrs by ELISA method; assay type: functional, organism-based
Staphylococcus aureus [15] = test: Bactericidal activity against Staphylococcus aureus ATCC 29213 assessed as eradication of bacteria at 8 times MIC measured after 8 hrs by time-kill assay; assay type: functional, organism-based
[16] = Toxicity in female KM mouse skin abscess model infected with methicillin-resistant Staphylococcus aureus clinical isolate 16 assessed as effect on spleen at 5 mg/kg, sc measured after 24 hrs by H and E staining based analysis; assay type: organism-based; conditions: in vivo
Staphylococcus aureus [17] = test: Antibacterial activity against methicillin-resistant Staphylococcus aureus clinical isolate 16 infected in female KM mouse skin abscess model assessed as reduction in bacterial load at 5 mg/kg, sc measured after 24 hrs relative to control; assay type: functional; design: scale not given: the % may be the effect or the level left
[18] = Toxicity in female KM mouse skin abscess model infected with methicillin-resistant Staphylococcus aureus clinical isolate 16 assessed as histological abnormalities in liver at 5 mg/kg, sc measured after 24 hrs by H and E staining based analysis; assay type: organism-based; conditions: in vivo
[19] = Toxicity in female KM mouse skin abscess model infected with methicillin-resistant Staphylococcus aureus clinical isolate 16 assessed as effect on heart at 5 mg/kg, sc measured after 24 hrs by H and E staining based analysis; assay type: organism-based; conditions: in vivo
Staphylococcus aureus [20] = test: Antibacterial activity against methicillin-resistant Staphylococcus aureus clinical isolate 16 infected in female KM mouse skin abscess model assessed as reduction in TNF-alpha level at 5 mg/kg, sc measured after 24 hrs by ELISA method; assay type: functional, organism-based

For `CN[C@H](CC(C)C)C(=O)N[C@H]1C(=O)N[C@@H](CC(N)=O)C(=O)N[C@H]2C(=O)N[C@H]3C(=O)N[C@H](C(=O)N[C@H](C(=O)O)c4cc(O)cc(O)c4-c4cc3ccc4O)[C@H](O)c3ccc(c(Cl)c3)Oc3cc2cc(c3O[C@@H]2O[C@H](CO)[C@@H](O)[C@H](O)[C@H]2O[C@H]2C[C@](C)(N)[C@H](O)[C@H](C)O2)Oc2ccc(cc2Cl)[C@H]1O` [VANCOMYCIN], which Activity [1] is on record?
The Activity was “Non-Toxic”.

What about the Activity (Staphylococcus aureus [2]) of the same compound?
The Activity was “Active”.

What about the Activity [3] of the same compound?
Its Activity is “Non-Toxic”.

What about the Activity (Staphylococcus aureus [4]) of the same compound?
Its Activity is “Active”.

And the Activity [5]?
Its Activity is “Non-Toxic”.

And the Activity (Staphylococcus aureus [6])?
The Activity was “Active”.

And the Activity [7]?
The Activity was “Non-Toxic”.

And the Activity (Staphylococcus aureus [8])?
Its Activity is 1.922 log10CFU/g.

What about the Activity [9] of the same compound?
Its Activity is “Non-Toxic”.

What about the Activity (Staphylococcus aureus [10]) of the same compound?
Its Activity is “inactive”.

And the Activity (Staphylococcus aureus [11])?
The Activity was “Active”.

What about the Activity [12] of the same compound?
The Activity was “Non-Toxic”.

What about the Activity [13] of the same compound?
The Activity was “Non-Toxic”.

What about the Activity (Staphylococcus aureus [14]) of the same compound?
Its Activity is “Active”.

And the Activity (Staphylococcus aureus [15])?
Its Activity is “inactive”.

What about the Activity [16] of the same compound?
Its Activity is “Non-Toxic”.

And the Activity (Staphylococcus aureus [17])?
Its Activity is 98.93%.

And the Activity [18]?
The Activity was “Non-Toxic”.

And the Activity [19]?
Its Activity is “Non-Toxic”.

What about the Activity (Staphylococcus aureus [20]) of the same compound?
Its Activity is “Active”.
